Columns and labels:
brine shrimp = test: Brine shrimp bioassay (cytotoxicity); type: in vivo; conditions: for LC50: brine shrimp, 24 hours
Procedure: The cytotoxicity of compounds isolated from Aristolochia taliscana was assayed using the well known brine shrimp bioassay. The cytotoxicities of compounds of the invention, expressed as percentage “death rates” after 24 hours, at varying concentrations, are shown in Table 8 below.

Saprolegnia asterophora = test: Antifungal plate diffusion method; type: cell-based; conditions: 150 microgramme aliquot spotted onto plate
Procedure: (§1) The antifungal activities of compounds of the invention was determined using a plate diffusion method. Plates containing medium and a fungal species were made up and 150 microgramme aliquots of a test compound of the invention were spotted onto the plate. The diameter of inhibition of fungal growth around the test compound was then determined.

Rhizoctonia solani = test: Antifungal plate diffusion method; type: cell-based; conditions: 150 microgramme aliquot spotted onto plate
Procedure: as §1

Botryis cinerea = test: Antifungal plate diffusion method; type: cell-based; conditions: 150 microgramme aliquot spotted onto plate
Procedure: as §1

opiate mu receptor = opiate mu receptor (Homo sapiens, UniProt P35372); test: Interaction with neurotransmitter receptors; type: binding
Chain of opiate mu receptor (P35372 whole entry): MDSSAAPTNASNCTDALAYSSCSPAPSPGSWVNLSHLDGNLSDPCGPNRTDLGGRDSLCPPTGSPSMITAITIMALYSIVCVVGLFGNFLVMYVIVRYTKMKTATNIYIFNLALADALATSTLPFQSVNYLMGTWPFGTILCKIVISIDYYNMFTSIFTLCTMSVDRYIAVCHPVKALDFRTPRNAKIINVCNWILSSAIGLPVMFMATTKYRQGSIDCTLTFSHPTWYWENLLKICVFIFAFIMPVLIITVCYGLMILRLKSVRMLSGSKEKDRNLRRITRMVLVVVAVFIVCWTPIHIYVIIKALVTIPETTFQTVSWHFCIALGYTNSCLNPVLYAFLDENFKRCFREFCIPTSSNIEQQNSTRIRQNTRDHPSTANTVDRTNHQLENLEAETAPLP

serotonin receptors = test: Interaction with neurotransmitter receptors; type: binding
GABA receptors = test: Interaction with neurotransmitter receptors; type: binding
dopamine receptors = test: Interaction with neurotransmitter receptors; type: binding
Parkinsonism = conditions: disclosed in U.S. Pat. No. 4782077; cited from earlier work
[1] = system: remaining receptors of twenty seven common receptor types; test: Interaction with neurotransmitter receptors; type: binding; conditions: twenty seven common receptor types tested
[2] = system: Salmonella typhimurium strain TA 100; test: Ames bio-assay, antimutagenic activity against 2-nitrofluorene (2-NF); type: cell-based; conditions: for Residual mutagenic activity (%) observed for 2-NF: 1 μg 2-NF per plate
Procedure: (§2) The four major constituents of the benzene extract from Aristolochia taliscana roots—eupomatenoid-7 (7), eupomatenoid-1 (8), eupomatenoid-8 (17), Licarin-A (16)—were tested for their mutagenic and antimutagenic properties using the Ames bio-assay (Maron, D. M. and Ames, B. N., Mutation reasearch, 1983, 113, 173). The test compounds have the following structural formula: [drawing 11]
(§3) Salmonella typhimurium strain TA 100 was used as the test organism and 2-amino-anthracene (2-AA) and 2-nitrofluorene (2-NF) as standard mutagens, of which 1 μg were added to each test plate. In the experiments with 2-AA, “S9 Mix” (derived from phenobarbital treated rat liver cells (De Flora, S., Camoirana, A., D'Agostini, F. and Balansky, R., Mutation Research, 1992, 267, 183) was also added.

[3] = system: Salmonella typhimurium strain TA 100; test: Ames bio-assay, antimutagenic activity against 2-amino-anthracene (2-AA) with S9 Mix; type: cell-based; conditions: for Residual mutagenic activity (%) observed for 2-AA: 1 μg 2-AA per plate, S9 Mix
Procedure: as §2, §3

Row | Compound | “Death Rate” After 24 Hours (%) (brine shrimp; 10 ppm) | “Death Rate” After 24 Hours (%) (brine shrimp; 100 ppm) | “Death Rate” After 24 Hours (%) (brine shrimp; 500 ppm) | LC50 (brine shrimp) | diameter of inhibition of fungal growth, Saprolegnia asterophora (Saprolegnia asterophora) | diameter of inhibition of fungal growth, Rhizoctonia solani (Rhizoctonia solani) | diameter of inhibition of fungal growth, Botryis cinerea (Botryis cinerea) | further results
1 | Aristolactam C III [Aristolactam C (4)] | 0 | 0 | 3 | >500 ppm | ++ (++ = 5-10 mm diameter inhibition) | + (+ = 5 mm diameter inhibition) | + (+ = 5 mm diameter inhibition) | 
2 | Taliscanine [Taliscanine (5)] |  |  |  |  |  |  |  | inhibition, opiate mu receptor (opiate mu receptor): 50%; activity at the serotonin receptors (serotonin receptors): negligible activity; activity at the GABA receptors (GABA receptors): negligible activity; activity at the dopamine receptors (dopamine receptors): negligible activity; symptoms of Parkinsonism and related neurological disorders (Parkinsonism): alleviates the symptoms of Parkinsonism and related neurological disorders; levels of inhibition with the remaining receptors [1]: very poor levels of inhibition
3 | COc1cc(C=O)ccc1O [Vanillin (31), Vanillin] | 5 | 0 | 12 | >500 ppm | − | − | − | 
4 | COc1cc2c(cc1C)C(=O)[C@H](O)C[C@@H]2C [Compound 34, (2R,4S)-2-Hydroxy-6-methoxy-4,7-dimethyl-1-tetralone] | 52 | 86 | 100 | <10 ppm | ++ (++ = 5-10 mm diameter inhibition) | ++ (++ = 5-10 mm diameter inhibition) | ++ (++ = 5-10 mm diameter inhibition) | 
5 | COc1cc([C@@H]2c3cc4c(cc3[C@H](O)[C@H]3COC(=O)[C@H]23)OCO4)cc(OC)c1OC [Podophyllotoxin, reference compound] | 74 | 93 | 100 | <10 ppm |  |  |  | 
6 | COc1cc(C2(C)COc3c(OC)cc(C=O)cc32)ccc1O (stereo not shown) |  |  |  |  |  |  |  | melting point: 162 to 165 °C
7 | C/C=C/c1cc(OC)c2oc(-c3ccc(O)c(OC)c3)c(CO)c2c1 |  |  |  |  |  |  |  | melting point: 175 to 179 °C
8 | COc1cc(-c2oc3c(OC)cc(/C=C/CO)cc3c2C)ccc1O |  |  |  |  |  |  |  | melting point: 180 to 183 °C
9 | COc1ccc2cc3c4c(cc(OC)c(OC)c4c2c1)C(=O)N3 [Aristolactam B (3), Aristolactam B III] | 5 | 9 | 29 | >500 ppm | − | + (+ = 5 mm diameter inhibition) | − | 
10 | C=C1/C=C/[C@@H](C(C)C)CC/C(C)=C/CC1 [E-Germacrene D (38), ent-Germacrene-D] | 0 | 39 | 100 | ca. 126 ppm | − | + (+ = 5 mm diameter inhibition) | + (+ = 5 mm diameter inhibition) | 
11 | CC=Cc1cc(OC)c2oc(-c3ccc4c(c3)OCO4)c(C)c2c1 [Eupomatenoid-1 (8), Eupomatenoid-1] | 12 | 16 | 20 | >500 ppm | − | − | − | antimutagenic effect against 2-nitrofluorene (in words) [2]: not against 2-NF; Residual mutagenic activity (%) observed for 2-NF ([2]; 50 μg compound added): 99%; Residual mutagenic activity (%) observed for 2-NF ([2]; 100 μg compound added): 93%; antimutagenic effect against 2-aminoanthracene (in words) [3]: antimutagenically active; Residual mutagenic activity (%) observed for 2-AA ([3]; 50 μg compound added): 49%; Residual mutagenic activity (%) observed for 2-AA ([3]; 100 μg compound added): 44%
12 | C/C=C/c1cc(OC)c2oc(-c3ccc(O)c(OC)c3)c(C)c2c1 [Eupomatenoid-7 (7), Eupomatenoid-7] | 27 | 38 | 38 | >500 ppm | − | − | − | antimutagenic effect against 2-nitrofluorene (in words) [2]: strong antimutagenic effects; Residual mutagenic activity (%) observed for 2-NF ([2]; 50 μg compound added): 16%; Residual mutagenic activity (%) observed for 2-NF ([2]; 100 μg compound added): 0%; antimutagenic effect against 2-aminoanthracene (in words) [3]: strong antimutagenic effects; Residual mutagenic activity (%) observed for 2-AA ([3]; 50 μg compound added): 4%; Residual mutagenic activity (%) observed for 2-AA ([3]; 100 μg compound added): 0%
13 | COc1cc(/C=C/CO)ccc1O [Coniferyl alcohol (29), Coniferyl alcohol] | 0 | 0 | 15 | >500 ppm | − | − | − | 
14 | C=CC(O)c1cc(OC)c2oc(-c3ccc(O)c(OC)c3)c(C)c2c1 (racemic) |  |  |  |  |  |  |  | melting point: 164 to 167 °C
15 | (+)(2R, 3R)-Dihydrocarinatidin [Dihydrocarinatidine (21)] | 26 | 53 | 80 | ca. 120 ppm | + (+ = 5 mm diameter inhibition) | + (+ = 5 mm diameter inhibition) | + (+ = 5 mm diameter inhibition) | 
16 | C/C=C/c1cc(OC)c2c(c1)[C@H](C)[C@@H](c1ccc(O)c(OC)c1)O2 [Licarin-A (16), Licarin-A] | 93 | 93 | 96 | <10 ppm | − | ++ (++ = 5-10 mm diameter inhibition) | − | antimutagenic effect against 2-nitrofluorene (in words) [2]: not against 2-NF; Residual mutagenic activity (%) observed for 2-NF ([2]; 50 μg compound added): 94%; Residual mutagenic activity (%) observed for 2-NF ([2]; 100 μg compound added): 85%; antimutagenic effect against 2-aminoanthracene (in words) [3]: antimutagenically active; Residual mutagenic activity (%) observed for 2-AA ([3]; 50 μg compound added): 31%; Residual mutagenic activity (%) observed for 2-AA ([3]; 100 μg compound added): 6%
17 | CC=Cc1cc(OC)c2c(c1)C(C)C(c1ccc3c(c1)OCO3)O2 (single isomer, unassigned; (-)) [Eupomatenoid-8 (17)] | 9 | 27 | 42 | >500 ppm | − | − | − | antimutagenic effect against 2-nitrofluorene (in words) [2]: did not show any antimutagenic effect; Residual mutagenic activity (%) observed for 2-NF ([2]; 50 μg compound added): 100%; Residual mutagenic activity (%) observed for 2-NF ([2]; 100 μg compound added): 95%; antimutagenic effect against 2-aminoanthracene (in words) [3]: did not show any antimutagenic effect; Residual mutagenic activity (%) observed for 2-AA ([3]; 50 μg compound added): 90%; Residual mutagenic activity (%) observed for 2-AA ([3]; 100 μg compound added): 73%
